What is called IC50 is the point on the concentration scale where inhibition reaches its midpoint. A lower IC50 goes with greater potency in that assay.

We go through 42 molecules from US8940739B2, “Compound of a reverse-turn mimetic and a production method and use therefor” (JW Pharmaceutical Corporation, priority 2010, dated 2015).

The data set concerns the target cDNA-expressed human hepatic CYP3A4 (Homo sapiens (Human), UniProt P08684). The data set can be described thus: Measurement of CYP (IC50 of P450 CYP3A4), BFC substrate. The class given is in vitro ADME. The following applies: 20 minutes. On the procedure: The compounds of the present invention had lower P450 CYP3A4 inhibitory activity (higher IC50). Lower CYP3A4 inhibitory activity means that the compounds of the present invention cause fewer side-effects from the pharmacological point of view.
This assay was performed in a 200 l volume in 96-well microtiter plates using cDNA-expressed human hepatic CYP3A4 (supersome, BD Gentest™ #456202). As a substrate for CYP3A4, 7-benzyloxy-4-trifluoromethyl-coumarin (BFC) was used. The compounds of Examples 1 to 5 and the substrate BFC were dissolved in 100% acetonitrile. The final volume of acetonitrile of the incubation mixture was less than 1% (volume/volume). A potassium phosphate buffer (pH 7.4, final concentration 0.1M), MgCl2 (final concentration 8.3 mM), EDTA (final concentration 1.67 mM), an inventive compound stock solution, CYP3A4 supersome, and NADPH (final concentration 0.25 mM) were added to each well. The reaction was initiated by adding the substrate (BFC, final concentration 30 µM) at 37. The incubation was performed for 20 minutes and then the reaction was terminated by the addition of 75 μl of acetonitrile: 0.5 M tris-base=4:1 (volume/volume).
Then, a fluorescent signal was measured using a fluorometer. A BFC metabolite, 7-hydroxy-4-trifluoromethyl-coumarin, was measured using an excitation wavelength of 409 nm and an emission wavelength of 530 nm.

cDNA-expressed human hepatic CYP3A4, sequence (P08684 whole entry): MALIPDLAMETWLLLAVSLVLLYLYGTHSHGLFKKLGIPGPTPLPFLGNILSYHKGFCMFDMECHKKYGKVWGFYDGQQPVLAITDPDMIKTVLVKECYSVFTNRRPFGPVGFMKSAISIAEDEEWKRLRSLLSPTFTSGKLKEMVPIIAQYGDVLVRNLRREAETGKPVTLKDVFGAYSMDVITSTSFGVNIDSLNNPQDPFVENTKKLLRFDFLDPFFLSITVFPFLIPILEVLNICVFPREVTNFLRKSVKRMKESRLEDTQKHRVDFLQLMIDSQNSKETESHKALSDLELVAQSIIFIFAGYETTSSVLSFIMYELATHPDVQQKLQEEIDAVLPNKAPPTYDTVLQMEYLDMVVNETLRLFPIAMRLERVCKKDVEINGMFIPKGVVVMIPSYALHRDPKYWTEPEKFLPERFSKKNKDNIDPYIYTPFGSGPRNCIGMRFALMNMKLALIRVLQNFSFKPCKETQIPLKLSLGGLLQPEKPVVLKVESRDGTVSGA

For `C=CCN1CC(=O)N2[C@@H](Cc3ccc(O)cc3)C(=O)N(Cc3cccc4c(C(=O)N5CCN(S(=O)(=O)CC)CC5)cn(C)c34)C[C@@H]2N1C(=O)NCc1ccccc1` [Compound E-16], it took 2.82 µM to reach half-maximal inhibition (IC50).
As for `C=CCN1CC(=O)N2[C@@H](Cc3ccc(O)cc3)C(=O)N(Cc3cccc4c(C(=O)NCCC(=O)OCC)cn(C)c34)C[C@@H]2N1C(=O)NCc1ccccc1` [Compound F-22], the figure is 3.58 µM; as for `C=CCN1CC(=O)N2[C@@H](Cc3ccc(O)cc3)C(=O)N(Cc3cccc4c(C(=O)N(C)CCN5CCN(C)CC5)cn(C)c34)C[C@@H]2N1C(=O)NCc1ccccc1` [Compound F-28], 7.8 µM.
As for `C=CCN1CC(=O)N2[C@@H](Cc3ccc(O)cc3)C(=O)N(Cc3cccc4c(C(=O)NCCCC(=O)OC)cn(C)c34)C[C@@H]2N1C(=O)NCc1ccccc1` [Compound F-23], the figure is 3.46 µM.
For `C=CCN1CC(=O)N2[C@@H](Cc3ccc(O)cc3)C(=O)N(Cc3cccc4c(C(=O)NCCN(CC)CC)cn(C)c34)C[C@@H]2N1C(=O)NCc1ccccc1` [Compound F-14], the IC50 came out at 3.64 µM. The IC50 values of the last two molecules are within 1.5-fold of each other.
For the molecule `C=CCN1CC(=O)N2[C@@H](Cc3ccc(O)cc3)C(=O)N(Cc3cccc4c(-c5ccc(NC(=O)c6ccc(N(CC)CC)cc6)cc5)cn(C)c34)C[C@@H]2N1C(=O)NCc1ccccc1` [Compound D-57], the 50% inhibitory concentration (IC50) was over 25 µM.
In the case of `C=CCN1CC(=O)N2[C@@H](Cc3ccc(O)cc3)C(=O)N(Cc3cccc4c(C(=O)NN5CCN(c6ccccn6)CC5)cn(C)c34)C[C@@H]2N1C(=O)NCc1ccccc1` [Compound E-38], the half-inhibitory concentration (IC50) was 2.48 µM.
Turning to `C=CCN1CC(=O)N2[C@@H](Cc3ccc(O)cc3)C(=O)N(Cc3cccc4c(C(=O)N5CCN(C6CCN(C)CC6)CC5)cn(C)c34)C[C@@H]2N1C(=O)NCc1ccccc1` [Compound E-64], it took 8.55 µM to reach half-maximal inhibition (IC50).
As for `C=CCN1CC(=O)N2[C@@H](Cc3ccc(O)cc3)C(=O)N(Cc3cccc4c(C(=O)N5CCN(CCO)CC5)cn(C)c34)C[C@@H]2N1C(=O)NCc1ccccc1` [Compound E-9], the figure is 6.82 µM; as for `C=CCN1CC(=O)N2[C@@H](Cc3ccc(O)cc3)C(=O)N(Cc3cccc4c(C(=O)N5CCN6CCN(C=O)CC6C5)cn(C)c34)C[C@@H]2N1C(=O)NCc1ccccc1` (stereo partly drawn) [Compound E-48], 12.1 µM; as for `C=CCN1CC(=O)N2[C@@H](Cc3ccc(O)cc3)C(=O)N(Cc3cccc4c(C(=O)N5CCN(CCCO)CC5)cn(C)c34)C[C@@H]2N1C(=O)NCc1ccccc1` [Compound E-11], 11.3 µM.
As for `C=CCN1CC(=O)N2[C@@H](Cc3ccc(O)cc3)C(=O)N(Cc3cccc4c(C(=O)NCCOCCO)cn(C)c34)C[C@@H]2N1C(=O)NCc1ccccc1` [Compound F-7], the figure is 16.4 µM; as for `C=CCN1CC(=O)N2C(CN(Cc3cccc4c(C(=O)Nc5ccc(NCCN6CCC(O)CC6)nc5)cn(C)c34)C(=O)[C@@H]2Cc2ccc(O)cc2)N1C(=O)NCc1ccccc1` (stereo partly drawn) [Compound G-29], 5.8 µM; as for `C=CCN1CC(=O)N2[C@@H](Cc3ccc(O)cc3)C(=O)N(Cc3cccc4c(C(=O)N5CCN(CCN6CCCCC6)CC5)cn(C)c34)C[C@@H]2N1C(=O)NCc1ccccc1` [Compound E-24], 5.53 µM.
As for `C=CCN1CC(=O)N2[C@@H](Cc3ccc(O)cc3)C(=O)N(Cc3cccc4c(C(=O)N(C)C)cn(C)c34)C[C@@H]2N1C(=O)NCc1ccccc1` [Compound F-1], the figure is 3.16 µM.
For `C=CCN1CC(=O)N2C(Cc3ccc(O)cc3)C(=O)N(Cc3cccc4c(C(=O)Nc5ccc(N(CCN(CC)CC)CCN(CC)CC)nc5)cn(C)c34)CC2N1C(=O)NCc1ccccc1` (stereo not drawn) [Compound G-26], 5.35 µM corresponded to half-maximal inhibition (IC50).
Turning to `C=CCN1CC(=O)N2[C@@H](Cc3ccc(O)cc3)C(=O)N(Cc3cccc4c(C(=O)N5CCN(CC6CCCC6)CC5)cn(C)c34)C[C@@H]2N1C(=O)NCc1ccccc1` [Compound E-21], the IC50 is over 25 µM.
Consider `C=CCN1CC(=O)N2[C@@H](Cc3ccc(O)cc3)C(=O)N(Cc3cccc4c(C(=O)NC5CCN(C(=O)CCO)CC5)cn(C)c34)C[C@@H]2N1C(=O)NCc1ccccc1` [Compound F-65], for which the IC50 was 6.87 µM.
`C=CCN1CC(=O)N2[C@@H](Cc3ccc(O)cc3)C(=O)N(Cc3cccc4c(C(=O)NNc5ccccc5)cn(C)c34)C[C@@H]2N1C(=O)NCc1ccccc1` [Compound F-60] showed an IC50 of 6.8 µM. This IC50 and that of the molecule before are within 1.5-fold of each other.
Under `C=CCN1CC(=O)N2[C@@H](Cc3ccc(O)cc3)C(=O)N(Cc3cccc4c(C(=O)N5CC(N6CCOCC6)C5)cn(C)c34)C[C@@H]2N1C(=O)NCc1ccccc1` [Compound E-72] stands 5.99 µM.
Consider `C=CCN1CC(=O)N2[C@@H](Cc3ccc(O)cc3)C(=O)N(Cc3cccc4c(-c5ccc(C(=O)Nc6ccc(OCCCC)cc6)cc5)cn(C)c34)C[C@@H]2N1C(=O)NCc1ccccc1` [Compound D-23], for which the IC50 is over 25 µM.
Under `C=CCN1CC(=O)N2[C@@H](Cc3ccc(O)cc3)C(=O)N(Cc3cccc4c(C(=O)N5CCC6CN(C)CC65)cn(C)c34)C[C@@H]2N1C(=O)NCc1ccccc1` (stereo partly drawn) [Compound E-69] stands 4.49 µM; under `C=CCN1CC(=O)N2C(CN(Cc3cccc4c(C(=O)Nc5ccc(NCCN(CC)CC)nc5)cn(C)c34)C(=O)[C@@H]2Cc2ccc(O)cc2)N1C(=O)NCc1ccccc1` (stereo partly drawn) [Compound G-24], 4.53 µM; under `C=CCN1CC(=O)N2[C@@H](Cc3ccc(O)cc3)C(=O)N(Cc3cccc4c(-c5ccc(NC(=O)CCCCCCC)cc5)cn(C)c34)C[C@@H]2N1C(=O)NCc1ccccc1` [Compound D-52], 21.7 µM.
The molecule `C=CCN1CC(=O)N2[C@@H](Cc3ccc(O)cc3)C(=O)N(Cc3cccc4c(C(=O)NN5CCN(C6CCCC6)CC5)cn(C)c34)C[C@@H]2N1C(=O)NCc1ccccc1` [Compound F-59] registered a half-inhibitory concentration (IC50) of 2.39 µM.
In turn, `C=CCN1CC(=O)N2[C@@H](Cc3ccc(O)cc3)C(=O)N(Cc3cccc4c(C(=O)NCCN5CCN(C)CC5)cn(C)c34)C[C@@H]2N1C(=O)NCc1ccccc1` [Compound F-27] yielded a half-maximal inhibitory concentration (IC50) of 11.5 µM.
`C=CCN1CC(=O)N2[C@@H](Cc3ccc(O)cc3)C(=O)N(Cc3cccc4c(C(=O)NCCCN5CCN(C)CC5)cn(C)c34)C[C@@H]2N1C(=O)NCc1ccccc1` [Compound F-30] came in with an IC50 of 2.54 µM.
`C=CCN1CC(=O)N2[C@@H](Cc3ccc(O)cc3)C(=O)N(Cc3cccc4c(C(=O)NN5CCCC5)cn(C)c34)C[C@@H]2N1C(=O)NCc1ccccc1` [Compound F-56] had an IC50 of 17.4 µM. This IC50 lies about 6.9-fold higher than the previous one.
`C=CCN1CC(=O)N2[C@@H](Cc3ccc(O)cc3)C(=O)N(Cc3cccc4c(C(=O)N(C)NC)cn(C)c34)C[C@@H]2N1C(=O)NCc1ccccc1` [Compound F-53] registered a half-maximal inhibitory concentration (IC50) of 2.33 µM.
`C=CCN1CC(=O)N2[C@@H](Cc3ccc(O)cc3)C(=O)N(Cc3cccc4c(-c5cccc(C(=O)Nc6ccc(N7CCN(c8ccc(OC)cc8)CC7)cc6)c5)cn(C)c34)C[C@@H]2N1C(=O)NCc1ccccc1` [Compound D-25]: the IC50 was over 25 µM.
Under `C=CCN1CC(=O)N2[C@@H](Cc3ccc(O)cc3)C(=O)N(Cc3cccc4c(C(=O)N(C)CC(=O)N5CCN(C)CC5)cn(C)c34)C[C@@H]2N1C(=O)NCc1ccccc1` [Compound F-32] stands 5.04 µM; under `C=CCN1CC(=O)N2[C@@H](Cc3ccc(O)cc3)C(=O)N(Cc3cccc4c(C(=O)NC5CCN(C(C)=O)CC5)cn(C)c34)C[C@@H]2N1C(=O)NCc1ccccc1` [Compound F-64], 5.12 µM.
As to `C=CCN1CC(=O)N2[C@@H](Cc3ccc(O)cc3)C(=O)N(Cc3cccc4c(C(=O)Nc5ccc(F)nc5)cn(C)c34)C[C@@H]2N1C(=O)NCc1ccccc1` [Compound G-1], the IC50 stood at 2.97 µM.
Take `C=CCN1CC(=O)N2[C@@H](Cc3ccc(O)cc3)C(=O)N(Cc3cccc4c(C(=O)NCCN5CCOCC5)cn(C)c34)C[C@@H]2N1C(=O)NCc1ccccc1` [Compound F-25]: the IC50 was found to be 8.5 µM.
With `C=CCN1CC(=O)N2[C@@H](Cc3ccc(O)cc3)C(=O)N(Cc3cccc4c(C(=O)N(CCO)CCNCCO)cn(C)c34)C[C@@H]2N1C(=O)NCc1ccccc1` [Compound F-20], inhibition was half-maximal at 2.89 µM (IC50).
As for `C=CCN1CC(=O)N2[C@@H](Cc3ccc(O)cc3)C(=O)N(Cc3cccc4c(C(=O)N5CC(O)C5)cn(C)c34)C[C@@H]2N1C(=O)NCc1ccccc1` [Compound E-70], the figure is 18.3 µM; as for `C=CCN1CC(=O)N2[C@@H](Cc3ccc(O)cc3)C(=O)N(Cc3cccc4c(C(=O)N5CCN6CCN(CC)CC6C5)cn(C)c34)C[C@@H]2N1C(=O)NCc1ccccc1` (stereo partly drawn) [Compound E-50], 5.04 µM; as for `C=CCN1CC(=O)N2[C@@H](Cc3ccc(O)cc3)C(=O)N(Cc3cccc4c(C(=O)N5CCC(NC(=O)CCO)CC5)cn(C)c34)C[C@@H]2N1C(=O)NCc1ccccc1` [Compound E-57], 7.65 µM.
`C=CCN1CC(=O)N2[C@@H](Cc3ccc(O)cc3)C(=O)N(Cc3cccc4c(C(=O)NCCCN5CCOCC5)cn(C)c34)C[C@@H]2N1C(=O)NCc1ccccc1` [Compound F-29] returned an IC50 of 1.1 µM.
As for `C=CCN1CC(=O)N2[C@@H](Cc3ccc(O)cc3)C(=O)N(Cc3cccc4c(C(=O)NN5CCCCC5)cn(C)c34)C[C@@H]2N1C(=O)NCc1ccccc1` [Compound F-57], the figure is 4.78 µM; as for `C=CCN1CC(=O)N2[C@@H](Cc3ccc(O)cc3)C(=O)N(Cc3cccc4c(C(=O)N5CCN(S(C)(=O)=O)CC5)cn(C)c34)C[C@@H]2N1C(=O)NCc1ccccc1` [Compound E-15], 11.2 µM.
Under `C=CCN1CC(=O)N2[C@@H](Cc3ccc(O)cc3)C(=O)N(Cc3cccc4c(C(=O)NN5CCOCC5)cn(C)c34)C[C@@H]2N1C(=O)NCc1ccccc1` [Compound F-58] stands 22.3 µM.
